# ChEMBL document CHEMBL1145651, “A constituent of Pterocarpus marsupium, (-)-epicatechin, as a potential antidiabetic agent” (1983)
# Key:
# Type in all cases: functional
# Details in all cases: route intraperitoneal
# Rattus norvegicus [1] = assay: Antihyperglycemic activity in Wistar rat assessed as decrease in alloxan-induced blood glucose level at 30 mg/kg, ip pretreated 24 hrs before alloxan challenge
# Rattus norvegicus [2] = assay: Antihyperglycemic activity in Wistar rat assessed as decrease in alloxan-induced blood glucose level at 30 mg/kg, ip administered 72 hrs after alloxan challenge
# Rattus norvegicus [3] = assay: Antihyperglycemic activity in Wistar rat assessed as decrease in alloxan-induced blood glucose level at 30 mg/kg, ip administered 72 to 288 hrs after alloxan challenge
# Rattus norvegicus [4] = assay: Antihyperglycemic activity in Wistar rat assessed as decrease in alloxan-induced blood glucose level at 30 mg/kg, ip administered 288 hrs after alloxan challenge
# Rattus norvegicus [5] = assay: Antihyperglycemic activity in Wistar rat assessed as decrease in alloxan-induced blood glucose level at 30 mg/kg, ip administered 168 hrs after alloxan challenge
# Rattus norvegicus [6] = assay: Antihyperglycemic activity in Wistar rat assessed as decrease in alloxan-induced blood glucose level at 30 mg/kg, ip administered 120 hrs after alloxan challenge
smiles,measurement,setting,value
Oc1cc(O)c2c(c1)O[C@H](c1ccc(O)c(O)c1)[C@H](O)C2 [(-)-EPICATECHIN],Activity,Rattus norvegicus [1],111 mg/dL
same,Activity,Rattus norvegicus [2],138 mg/dL
same,Activity,Rattus norvegicus [3],129 mg/dL
same,Activity,Rattus norvegicus [4],117 mg/dL
same,Activity,Rattus norvegicus [5],128 mg/dL
same,Activity,Rattus norvegicus [6],120 mg/dL
